# Source: patent publication US10071968B2 (priority 2014, dated 2018)
# Molecular target: human σ1 receptor (Homo sapiens, UniProt Q99720)
# Assay: Human σ1 receptor radioligand assay ([3H](+)-pentazocine, transfected HEK-293 membranes)
# Type: binding
# Set-up: μ and σ1 dual binding: key to the marks not given beside the values
# Conditions: one combined class for Ki-σ1 (A1) and Ki-μ (human μ-opioid receptor, A2)
# Protocol: To investigate binding properties of test compounds to human σ1 receptor, transfected HEK-293 membranes and [^3H](+)-pentazocine (Perkin Elmer, NET-1056), as the radioligand, were used. The assay was carried out with 7 μg of membrane suspension, 5 nM of [^3H](+)-pentazocine in either absence or presence of either buffer or 10 μM Haloperidol for total and non-specific binding, respectively. Binding buffer contained Tris-HCl 50 mM at pH 8. Plates were incubated at 37° C. for 120 minutes. After the incubation period, the reaction mix was then transferred to MultiScreen HTS, FC plates (Millipore), filtered and plates were washed 3 times with ice-cold 10 mM Tris-HCL (pH7.4). Filters were dried and counted at approximately 40% efficiency in a MicroBeta scintillation counter (Perkin-Elmer) using EcoScint liquid scintillation cocktail
# Sequence of human σ1 receptor (Q99720 whole entry): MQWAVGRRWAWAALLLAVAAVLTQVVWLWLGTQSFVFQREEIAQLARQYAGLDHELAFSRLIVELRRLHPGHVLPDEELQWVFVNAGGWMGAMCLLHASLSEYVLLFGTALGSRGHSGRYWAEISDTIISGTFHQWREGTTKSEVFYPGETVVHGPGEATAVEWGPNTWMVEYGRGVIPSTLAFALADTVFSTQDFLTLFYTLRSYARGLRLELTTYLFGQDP
row,Structure (SMILES),μ and σ1 dual binding
1,"CN(CCOC(c1cncs1)c1ccnn1C)Cc1cccc(F)c1 (stereo not shown) [Example 49, N-(3-fluorobenzyl)-N-methyl-2-((1-methyl-1H-pyrazol-5-yl)(thiazol-5-yl)methoxy)ethanamine]",++
2,"Cc1ccsc1[C@@H](OCCN(C)Cc1ccccc1)c1ccnn1C [Example 30, (S)-N-benzyl-N-methyl-2-((1-methyl-1H-pyrazol-5-yl)(3-methylthiophen-2-yl)methoxy)ethanamine]",++
3,"COc1ccccc1C(OCCN(C)Cc1cccc(F)c1)c1ccnn1C (stereo not shown) [Example 48, N-(3-fluorobenzyl)-2-((2-methoxyphenyl)(1-methyl-1H-pyrazol-5-yl)methoxy)-N-methylethanamine]",++
4,"CN(CCOC(c1ccc(O)cc1)c1ccnn1C)Cc1ccccc1 (stereo not shown) [Example 51, 4-((2-(benzyl(methyl)amino)ethoxy)(1-methyl-1H-pyrazol-5-yl)methyl)phenol]",++
5,"CC(C)N(CCOC(c1ccccc1)c1ccnn1C)Cc1cccc(F)c1 (stereo not shown) [Example 29, N-(3-fluorobenzyl)-N-(2-((1-methyl-1H-pyrazol-5-yl)(phenyl)methoxy)ethyl)propan-2-amine]",++
6,"CN(CCO[C@H](c1ccccc1)c1ccnn1C)CCc1ccccc1 [Example 11, (R)-N-methyl-2-((1-methyl-1H-pyrazol-5-yl)(phenyl)methoxy)-N-phenethylethanamine]",++
7,"CN(CCOC(c1ccccc1)c1ccnn1C)Cc1ccc(F)cc1 (stereo not shown) [Example 8, N-(4-fluorobenzyl)-N-methyl-2-((1-methyl-1H-pyrazol-5-yl)(phenyl)methoxy)ethanamine]",++
8,"CC(c1ccccc1)N(C)CCOC(c1ccccc1)c1ccnn1C (stereo not shown) [Example 16, N-methyl-2-((1-methyl-1H-pyrazol-5-yl)(phenyl)methoxy)-N-(1-phenylethyl)ethanamine]",++
9,"CN(CCOC(c1cccnc1)c1ccnn1C)Cc1cccc(F)c1 (stereo not shown) [Example 46, N-(3-fluorobenzyl)-N-methyl-2-((1-methyl-1H-pyrazol-5-yl)(pyridin-3-yl)methoxy)ethanamine]",++
10,"CN(CCO[C@H](c1ccccc1)c1ccnn1C)Cc1ccc(F)cc1 [Example 10, (R)-N-(4-fluorobenzyl)-N-methyl-2-((1-methyl-1H-pyrazol-5-yl)(phenyl)methoxy)ethanamine]",++
11,"COc1cccc(CN(C)CCOC(c2ccccc2)c2ccnn2C)c1 (stereo not shown) [Example 23, N-(3-methoxybenzyl)-N-methyl-2-((1-methyl-1H-pyrazol-5-yl)(phenyl)methoxy)ethanamine]",++
12,"CN(CCO[C@H](c1ccccc1)c1ccnn1C)Cc1ccccc1 [Example 9, (R)-N-benzyl-N-methyl-2-((1-methyl-1H-pyrazol-5-yl)(phenyl)methoxy)ethanamine]",++
13,"COc1ccccc1C(OCCN(C)Cc1ccccc1)c1ccnn1C (stereo not shown) [Example 39, N-benzyl-2-((2-methoxyphenyl)(1-methyl-1H-pyrazol-5-yl)methoxy)-N-methylethanamine]",++
14,"CC(C)N(CCOC(c1ccccc1)c1ccnn1C)Cc1ccccc1 (stereo not shown) [Example 27, N-benzyl-N-(2-((1-methyl-1H-pyrazol-5-yl)(phenyl)methoxy)ethyl)propan-2-amine]",++

# Same assay, conditions: one combined class for Ki-σ1 (A1) and Ki-μ (human μ-opioid receptor, A2); read-out: μ and σ1 dual binding
row,Structure (SMILES),Ki [nM]
1,"CN(CCOC(c1ccccc1)c1ccnn1C)CCc1ccccc1 (stereo not shown) [Example 7, N-methyl-2-((1-methyl-1H-pyrazol-5-yl)(phenyl)methoxy)-N-phenethylethanamine]",< 500
2,"CN(CCOC(c1ccccn1)c1ccnn1C)Cc1ccccc1 (stereo not shown) [Example 40, N-benzyl-N-methyl-2-((1-methyl-1H-pyrazol-5-yl)(pyridin-2-yl)methoxy)ethanamine]",> 500
3,"CN(CCO[C@@H](c1ccccc1)c1ccnn1C)CCc1ccccc1 [Example 19, (S)-N-methyl-2-((1-methyl-1H-pyrazol-5-yl)(phenyl)methoxy)-N-phenethylethanamine]",< 500
4,"CN(CC[S+]([O-])C(c1ccccc1)c1ccnn1C)Cc1ccccc1 (stereo not shown) [Example 34, N-Benzyl-N-methyl-2-((1-methyl-1H-pyrazol-5-yl)(phenyl)methylsulfinyl)ethanamine]",> 500
5,"CN(CCOC(c1ccccc1O)c1ccnn1C)Cc1ccccc1 (stereo not shown) [Example 52, 2-((2-(benzyl(methyl)amino)ethoxy)(1-methyl-1H-pyrazol-5-yl)methyl)phenol]",< 500
6,"CN(CCOC(c1ccccc1)c1ccnn1C)Cc1ccc(C(F)(F)F)nc1 (stereo not shown) [Example 3, N-methyl-2-((1-methyl-1H-pyrazol-5-yl)(phenyl)methoxy)-N-((6-(trifluoromethyl)pyridin-3-yl)methyl)ethanamine]",> 500
7,"CN(CCSC(c1ccccc1)c1ccnn1C)Cc1ccccc1 (stereo not shown) [Example 33, N-benzyl-N-methyl-2-((1-methyl-1H-pyrazol-5-yl)(phenyl)methylthio)ethanamine]",< 500
8,"CN(CCOC(c1cncs1)c1ccnn1C)Cc1ccccc1 (stereo not shown) [Example 41, N-benzyl-N-methyl-2-((1-methyl-1H-pyrazol-5-yl)(thiazol-5-yl)methoxy)ethanamine]",> 500
